This passage reports MIC and Ratio results from ChEMBL document CHEMBL2062457, “Synthesis and antibacterial activity of desosamine-modified macrolide derivatives” (2012).

What all share (format): functional
Assay [1] relates to Staphylococcus aureus. As to the kind of experiment: Antibacterial activity against macrolide-susceptible Staphylococcus aureus ATCC 29213.
Assay [2] concerns Staphylococcus aureus. In words: Antibacterial activity against macrolide-resistant Staphylococcus aureus ATCC 33591 constitutively expressing ermA.
Assay [3] has as its system Staphylococcus aureus. In words: Ratio of MIC for macrolide-resistant Staphylococcus aureus ATCC 33591 to MIC for macrolide-susceptible Staphylococcus aureus ATCC 29213.

In brackets after ≈: the same amount, converted by molar mass.

`CC[C@H]1OC(=O)[C@H](C)C(=O)[C@H](C)[C@@H](O[C@@H]2O[C@H](C)C[C@H](N(C)C)[C@H]2O)[C@](C)(OC)C[C@@H](C)C(=O)[C@H](C)[C@H]2N(CCCCn3cnc(-c4cccnc4)c3)C(=O)O[C@]12C` [TELITHROMYCIN]: the minimum inhibitory concentration (MIC) (commonly the least concentration at which growth counts as inhibited) in assay [1] was 0.08 µg/mL (≈ 0.0985 µM); in assay [2], above 256 µg/mL.
Regarding `CC[C@H]1OC(=O)[C@H](C)C(=O)[C@H](C)[C@@H](O[C@@H]2O[C@H](C)C[C@H](N(C)C)[C@H]2O)[C@](C)(OCC=Cc2cnc3ccccc3c2)C[C@@H](C)C(=O)[C@H](C)[C@H]2NC(=O)O[C@@]21C` [CETHROMYCIN], the figures for the minimal inhibitory concentration (MIC) in assay [1] and in assay [2] were 0.0075 µg/mL (≈ 0.00979 µM) and above 256 µg/mL, respectively. Also, the Ratio in assay [3] is listed as above 10000.
For `CC[C@H]1OC(=O)[C@H](C)[C@@H](O[C@H]2C[C@@](C)(OC)[C@@H](O)[C@H](C)O2)[C@H](C)[C@@H](O[C@H]2C[C@@H](N(C)C)C[C@@H](C)O2)[C@](C)(OC)C[C@@H](C)C(=O)[C@H](C)[C@@H](O)[C@]1(C)O`, the MIC is 64 µg/mL (≈ 87.4 µM) in assay [1] and above 256 µg/mL in assay [2].
As for `CC[C@H]1OC(=O)[C@H](C)C(=O)[C@H](C)[C@@H](O[C@@H]2O[C@H](C)C[C@H](NC)[C@H]2O)[C@](C)(OC)C[C@@H](C)C(=O)[C@H](C)[C@H]2N(CCCCn3cnc(-c4cccnc4)c3)C(=O)O[C@]12C`, the MIC is 16 µg/mL (≈ 20.1 µM) in assay [1] and above 256 µg/mL in assay [2].
In the same order, the values of `CC[C@H]1OC(=O)[C@H](C)C(=O)[C@H](C)[C@@H](O[C@H]2C[C@@H](N(C)C)C[C@@H](C)O2)[C@](C)(OC/C=C/c2cnc3ccccc3c2)C[C@@H](C)C(=O)[C@H](C)[C@H]2NC(=O)O[C@@]21C` are 4 µg/mL (≈ 5.33 µM) and above 256 µg/mL.
`CC[C@H]1OC(=O)[C@H](C)[C@@H](O[C@H]2C[C@@](C)(OC)[C@@H](O)[C@H](C)O2)[C@H](C)[C@@H](O[C@@H]2O[C@H](C)C[C@H](NC)[C@H]2O)[C@](C)(OC)C[C@@H](C)C(=O)[C@H](C)[C@@H](O)[C@]1(C)O`: the MIC in assay [1] was 4 µg/mL (≈ 5.45 µM); in assay [2], above 256 µg/mL.
`CC[C@H]1OC(=O)[C@H](C)[C@@H](O[C@H]2C[C@@](C)(OC)[C@@H](O)[C@H](C)O2)[C@H](C)[C@@H](O[C@@H]2O[C@H](C)C[C@H](N(C)C)[C@H]2O)[C@](C)(O)C[C@@H](C)C(=O)[C@H](C)[C@@H](O)[C@]1(C)O` [ERYTHROMYCIN]: the MIC in assay [1] is 0.5 µg/mL (≈ 0.681 µM); in assay [2], above 256 µg/mL.
Regarding `CC[C@H]1OC(=O)[C@H](C)[C@@H](O[C@H]2C[C@@](C)(OC)[C@@H](O)[C@H](C)O2)[C@H](C)[C@@H](O[C@@H]2O[C@H](C)C[C@H](N(C)C(=N)N)[C@H]2O)[C@](C)(OC)C[C@@H](C)C(=O)[C@H](C)[C@@H](O)[C@]1(C)O`, the minimal inhibitory concentration (MIC) is 32 µg/mL (≈ 41.2 µM) in assay [1] and above 256 µg/mL in assay [2].
Turning to `CC[C@H]1OC(=O)[C@H](C)[C@@H](O[C@H]2C[C@@](C)(OC)[C@@H](O)[C@H](C)O2)[C@H](C)[C@@H](O[C@@H]2O[C@H](C)C[C@H](NC)[C@H]2O)[C@](C)(O)C[C@@H](C)C(=O)[C@H](C)[C@@H](O)[C@]1(C)O`, the MIC in assay [1] is 8 µg/mL (≈ 11.1 µM); in assay [2] it was above 256 µg/mL.
In the case of `CCCCN(C)[C@@H]1C[C@H](O[C@@H]2[C@@H](C)C(=O)[C@@H](C)C(=O)O[C@H](CC)[C@@]3(C)OC(=O)N(CCCCn4cnc(-c5cccnc5)c4)[C@@H]3[C@@H](C)C(=O)[C@H](C)C[C@@]2(C)OC)O[C@H](C)C1`, the minimal inhibitory concentration (MIC) was 64 µg/mL (≈ 76.4 µM) in assay [1] and above 256 µg/mL in assay [2].
Consider `CC[C@H]1OC(=O)[C@H](C)[C@@H](O[C@H]2C[C@@](C)(OC)[C@@H](O)[C@H](C)O2)[C@H](C)[C@@H](O[C@H]2C[C@@H](N(C)C)C[C@@H](C)O2)[C@](C)(O)C[C@@H](C)C(=O)[C@H](C)[C@@H](O)[C@]1(C)O`, for which the minimal inhibitory concentration (MIC) in assay [1] was 64 µg/mL (≈ 89.1 µM); in assay [2], above 256 µg/mL.
For the molecule `CCCCN(C)[C@H]1C[C@@H](C)O[C@@H](O[C@@H]2[C@@H](C)C(=O)[C@@H](C)C(=O)O[C@H](CC)[C@@]3(C)OC(=O)N(CCCCn4cnc(-c5cccnc5)c4)[C@@H]3[C@@H](C)C(=O)[C@H](C)C[C@@]2(C)OC)[C@@H]1O`, the MIC was 0.5 µg/mL (≈ 0.585 µM) in assay [1] and above 256 µg/mL in assay [2].
`CC[C@H]1OC(=O)[C@H](C)C(=O)[C@H](C)[C@@H](O[C@H]2C[C@@H](N(C)C)C[C@@H](C)O2)[C@](C)(OC)C[C@@H](C)C(=O)[C@H](C)[C@H]2N(CCCCn3cnc(-c4cccnc4)c3)C(=O)O[C@]12C`: the MIC in assay [1] was 8 µg/mL (≈ 10.1 µM); in assay [2], above 256 µg/mL.
